Measured values reported in paper PMC11818225, “Multifaceted Sulfonamide-Derived Thiosemicarbazones: Combining Metal Chelation and Carbonic Anhydrases Inhibition in Anticancer Therapy” (International Journal of Molecular Sciences, 2025).

Key:
[1] = system: A549 (non-small cell lung); test: Antiproliferative SBR assay (NCI protocol), A549; type: cell-based, human; settings: 48 h exposure, n = 3, mean ± SD
Excerpt: (§1) The latter two represent multidrug-resistant cell lines.

HBL-100 (breast) = test: Antiproliferative SBR assay (NCI protocol), HBL-100; type: cell-based, human; settings: 48 h exposure, n = 3, mean ± SD
Excerpt: as §1

HeLa (cervix) = test: Antiproliferative SBR assay (NCI protocol), HeLa; type: cell-based, human; settings: 48 h exposure, n = 3, mean ± SD
Excerpt: as §1

T-47D (breast) = test: Antiproliferative SBR assay (NCI protocol), T-47D; type: cell-based, human; settings: 48 h exposure, n = 3, mean ± SD, multidrug-resistant line
Excerpt: as §1

WiDr (colon) = test: Antiproliferative SBR assay (NCI protocol), WiDr; type: cell-based, human; settings: 48 h exposure, n = 3, mean ± SD, multidrug-resistant line
Excerpt: as §1

[2] = system: SW1573 (non-small cell lung)
Protocol: The potential antiproliferative activity of sulfonamides synthesized in this study was evaluated in vitro using the SBR assay, following the US NCI protocol. A panel of six tumor cell lines was employed: A549 (non-small cell lung), HBL-100 (breast), HeLa (cervix), SW1573 (non-small cell lung), T-47D (breast), and WiDr (colon). The latter two represent multidrug-resistant cell lines.
Cells were maintained in culture in 60 mm cell culture dishes in growth medium (10 mL) and passaged twice weekly.
The antiproliferative activity of compounds was tested using our implementation of the protocol of the National Cancer Institute (NCI) of the USA. The following seeding densities (cells per well) were used: 2500 (A549, HBL-100, HeLa, and SW1573) and 5000 (T-47D and WiDr). Stock solutions of inhibitors (40 mM) were prepared in pure DMSO (400 times the maximum test concentration).

human CA I = human CA I (Homo sapiens, UniProt P00915); test: Stopped-flow CO2 hydrase assay, CA I
Chain of human CA I (P00915 whole entry): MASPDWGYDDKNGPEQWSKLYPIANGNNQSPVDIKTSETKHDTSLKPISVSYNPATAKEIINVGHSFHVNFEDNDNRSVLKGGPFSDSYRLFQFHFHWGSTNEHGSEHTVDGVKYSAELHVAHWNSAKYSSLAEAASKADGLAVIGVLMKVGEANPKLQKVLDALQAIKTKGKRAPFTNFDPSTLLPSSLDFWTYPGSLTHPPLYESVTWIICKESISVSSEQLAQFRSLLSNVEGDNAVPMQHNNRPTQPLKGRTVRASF

human CA II = human CA II (Homo sapiens, UniProt P00918); test: Stopped-flow CO2 hydrase assay, CA II
human CA IX = human CA IX (Homo sapiens, UniProt Q16790); test: Stopped-flow CO2 hydrase assay, CA IX; settings: for Selectivity Ratio I/IX: Ki CA I / Ki CA IX; for Selectivity Ratio II/IX: Ki CA II / Ki CA IX
human CA XII = human CA XII (Homo sapiens, UniProt O43570); test: Stopped-flow CO2 hydrase assay, CA XII; settings: for Selectivity Ratio I/XII: Ki CA I / Ki CA XII; for Selectivity Ratio II/XII: Ki CA II / Ki CA XII
Chain of human CA XII (O43570 25-354): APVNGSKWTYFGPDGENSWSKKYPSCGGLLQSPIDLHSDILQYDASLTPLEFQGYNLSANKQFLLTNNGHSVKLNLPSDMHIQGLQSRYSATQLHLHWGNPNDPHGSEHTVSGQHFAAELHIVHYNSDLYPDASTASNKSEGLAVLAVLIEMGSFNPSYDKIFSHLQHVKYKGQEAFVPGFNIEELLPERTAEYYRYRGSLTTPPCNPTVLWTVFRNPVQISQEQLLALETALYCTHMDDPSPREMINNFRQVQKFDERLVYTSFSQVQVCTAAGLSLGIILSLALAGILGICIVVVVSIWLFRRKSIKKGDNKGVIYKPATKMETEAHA

| Structure (SMILES) | GI50 ([1]; Homo sapiens, A549) [µM] | GI50 (HBL-100 (breast); Homo sapiens, HBL-100) [µM] | GI50 (HeLa (cervix); Homo sapiens, HeLa) [µM] | GI50 (T-47D (breast); Homo sapiens, T47D) [µM] | GI50 (WiDr (colon); Homo sapiens, WiDr) [µM] | GI50 [2] [µM] | GI50 [1] [µM] | GI50 (HBL-100 (breast)) [µM] | GI50 (HeLa (cervix)) [µM] | GI50 (T-47D (breast)) [µM] | GI50 (WiDr (colon)) [µM] | Ki (human CA I) [µM] | Ki (human CA II) [µM] | Ki (human CA IX) [µM] | Selectivity Ratio I/IX (human CA IX) | Selectivity Ratio II/IX (human CA IX) | Ki (human CA XII) [µM] | Selectivity Ratio I/XII (human CA XII) | Selectivity Ratio II/XII (human CA XII) |
| --- | --- | --- | --- | --- | --- | --- | --- | --- | --- | --- | --- | --- | --- | --- | --- | --- | --- | --- | --- |
| O=c1[nH]cc(F)c(=O)[nH]1 [5-Fluorouracil, reference compound] | 2.2 ± 0.3 | 4.4 ± 0.7 | 16 ± 5 | 43 ± 16 | 49 ± 7 | 3.3 ± 1.2 |  |  |  |  |  |  |  |  |  |  |  |  |  |
| [NH2][Pt]([NH2])([Cl])[Cl] [CDDP, cisplatin, reference compound] |  |  |  |  |  | 2.7 ± 0.4 | 4.9 ± 0.2 | 1.9 ± 0.2 | 1.8 ± 0.5 | 17 ± 3 | 26 ± 4 |  |  |  |  |  |  |  |  |
| NNC(=S)Nc1ccc(S(N)(=O)=O)cc1 [Compound 3a, 4-N-(4′-Sulfonamidophenyl)-3-thiosemicarbazide] | > 100 | > 100 | > 100 | > 100 | > 100 | > 100 |  |  |  |  |  |  |  |  |  |  |  |  |  |
| NNC(=S)Nc1cccc(S(N)(=O)=O)c1 [Compound 3b, 4-N-(3′-Sulfonamidophenyl)-3-thiosemicarbazide] | > 100 | > 100 | > 100 | > 100 | > 100 | > 100 |  |  |  |  |  | 1.46 | 0.439 | 0.185 | 7.9 | 2.4 | 0.116 | 12.6 | 3.8 |
| NNC(=S)NCCc1ccc(S(N)(=O)=O)cc1 [Compound 3c, 4-N-[2′-(4″-Sulfonamido)phenyl]ethyl-3-thiosemicarbazide] | > 100 | > 100 | > 100 | > 100 | > 100 | > 100 |  |  |  |  |  | 0.079 | 0.00851 | 0.013 | 6.1 | 0.65 | 0.00502 | 15.7 | 1.7 |
| COc1ccc(/C=N/NC(=S)Nc2ccc(S(N)(=O)=O)cc2)cc1 [Compound 4b, 1-(4′-Methoxyphenylmethylene)-4-(4″-sulfonamidophenyl)-3-thiosemicarbazone] | > 100 | > 100 | 64 ± 23 | > 100 | > 100 | > 100 |  |  |  |  |  |  |  |  |  |  |  |  |  |
| NS(=O)(=O)c1ccc(NC(=S)N/N=C/c2ccc(F)cc2)cc1 [Compound 4c, 1-(4′-Fluorophenylmethylene)-4-(4″-sulfonamidophenyl)-3-thiosemicarbazone] | 25 ± 5 | 28 ± 1 | 7.9 ± 1.1 | 17 ± 1 | 24 ± 4 | 6 ± 0.4 |  |  |  |  |  |  |  |  |  |  |  |  |  |
| NS(=O)(=O)c1ccc(NC(=S)N/N=C/c2ccc(Cl)cc2)cc1 [Compound 4d, 1-(4′-Chlorophenylmethylene)-4-(4″-sulfonamidophenyl)-3-thiosemicarbazone] | > 100 | > 100 | > 100 | > 100 | > 100 | > 100 |  |  |  |  |  |  |  |  |  |  |  |  |  |
| NS(=O)(=O)c1ccc(NC(=S)N/N=C/c2ccc(Br)cc2)cc1 [Compound 4e, 1-(4′-Bromophenylmethylene)-4-(4″-sulfonamidophenyl)-3-thiosemicarbazone] | 23 ± 6 | 24 ± 2 | 18 ± 1 | 36 ± 1 | 62 ± 12 | 22 ± 1 |  |  |  |  |  |  |  |  |  |  |  |  |  |
| NS(=O)(=O)c1ccc(NC(=S)N/N=C/c2ccc([N+](=O)[O-])cc2)cc1 [Compound 4f, 1-(4′-Nitrophenylmethylene)-4-(4″-sulfonamidophenyl)-3-thiosemicarbazone] | > 100 | > 100 | > 100 | > 100 | > 100 | > 100 |  |  |  |  |  |  |  |  |  |  |  |  |  |
| NS(=O)(=O)c1cccc(NC(=S)N/N=C/c2ccccc2)c1 [Compound 4g, 1-Phenylmethylene-4-(3″-sulfonamidophenyl)-3-thiosemicarbazone] | 51 ± 10 | > 100 | 61 ± 6 | 83 ± 10 | 62 ± 10 | 70 ± 1 |  |  |  |  |  |  |  |  |  |  |  |  |  |
| COc1ccc(/C=N/NC(=S)Nc2cccc(S(N)(=O)=O)c2)cc1 [Compound 4h, 1-(4′-Methoxyphenylmethylene)-4-(3″-sulfonamidophenyl)-3-thiosemicarbazone] | > 100 | > 100 | > 100 | > 100 | > 100 | > 100 |  |  |  |  |  |  |  |  |  |  |  |  |  |
| NS(=O)(=O)c1cccc(NC(=S)N/N=C/c2ccc(F)cc2)c1 [Compound 4i, 1-(4′-Fluorophenylmethylene)-4-(3″-sulfonamidophenyl)-3-thiosemicarbazone] | 83 ± 16 | > 100 | > 100 | > 100 | 79 ± 29 | > 100 |  |  |  |  |  |  |  |  |  |  |  |  |  |
| NS(=O)(=O)c1cccc(NC(=S)N/N=C/c2ccc(Cl)cc2)c1 [Compound 4j, 1-(4′-Chlorophenylmethylene)-4-(3″-sulfonamidophenyl)-3-thiosemicarbazone] | 22 ± 4 | 42 ± 15 | 38 ± 3 | 59 ± 16 | 24 ± 8 | 36 ± 4 |  |  |  |  |  |  |  |  |  |  |  |  |  |
| NS(=O)(=O)c1cccc(NC(=S)N/N=C/c2ccc(Br)cc2)c1 [Compound 4k, 1-(4′-Bromophenylmethylene)-4-(3″-sulfonamidophenyl)-3-thiosemicarbazone] | 19 ± 6 | 40 ± 1 | 45 ± 5 | > 100 | > 100 | 46 ± 1 |  |  |  |  |  |  |  |  |  |  |  |  |  |
| NS(=O)(=O)c1ccc(CCNC(=S)N/N=C/c2ccccc2)cc1 [Compound 4l, 1-Phenylmethylene-4-[2′-(4″-sulfonamido)phenyl]ethyl-3-thiosemicarbazone] | 90 ± 14 | > 100 | > 100 | > 100 | 90 ± 14 | 99 ± 1 |  |  |  |  |  | 0.568 | 0.0702 | 0.0308 | 18.4 | 2.3 | 0.00912 | 62.3 | 7.7 |
| COc1ccc(/C=N/NC(=S)NCCc2ccc(S(N)(=O)=O)cc2)cc1 [Compound 4m, 1-(4′-Methoxyphenylmethylene)-4-[2″-(4‴-sulfonamido)phenyl]ethyl-3-thiosemicarbazone] | 97 ± 4 | > 100 | > 100 | > 100 | > 100 | > 100 |  |  |  |  |  | 3.48 | 0.321 | 0.164 | 21.2 | 2.0 | 0.035 | 99.4 | 9.2 |
| NS(=O)(=O)c1ccc(CCNC(=S)N/N=C/c2ccc(F)cc2)cc1 [Compound 4n, 1-(4′-Fluorophenylmethylene)-4-[2″-(4‴-sulfonamido)phenyl]ethyl-3-thiosemicarbazone] | > 100 | > 100 | > 100 | > 100 | > 100 | > 100 |  |  |  |  |  | 2.49 | 0.59 | 0.3 | 8.3 | 2.0 | 0.0485 | 51.2 | 12.2 |
| NS(=O)(=O)c1ccc(CCNC(=S)N/N=C/c2ccc(Cl)cc2)cc1 [Compound 4o, 1-(4′-Chlorophenylmethylene)-4-[2″-(4‴-sulfonamido)pheny]ethyl-3-thiosemicarbazone] | 62 ± 6 | 76 ± 32 | 45 ± 16 | > 100 | > 100 | 73 ± 38 |  |  |  |  |  | 6.22 | 0.773 | 0.408 | 15.2 | 1.9 | 0.143 | 43.4 |  |
| NS(=O)(=O)c1ccc(CCNC(=S)N/N=C/c2ccc(Br)cc2)cc1 [Compound 4p, 1-(4′-Bromophenylmethylene)-4-[2″-(4‴-sulfonamido)phenyl]ethyl-3-thiosemicarbazone] | 21 ± 4 | 42 ± 8 | 31 ± 9 | 37 ± 8 | 58 ± 9 | 53 ± 17 |  |  |  |  |  | 6.09 | 0.813 | 0.499 | 12.2 | 1.6 | 0.123 | 49.5 | 6.6 |
| NS(=O)(=O)c1ccc(CCNC(=S)N/N=C/c2ccccn2)cc1 [Compound 5c, 1-(Pyridin-2′-ylmethylene)-4-[2″-(4‴-sulfonamidophenyl)]ethyl-3-thiosemicarbazone] | 37 ± 11 | > 100 | > 100 | > 100 | > 100 | > 100 |  |  |  |  |  | 0.27 | 0.0839 | 0.0285 | 9.5 | 2.9 | 0.0093 | 29.0 | 9.0 |
